In patent US11612652B2, “Lipids as synthetic vectors to enhance antigen processing and presentation ex-vivo in dendritic cell therapy” (PDS Biotechnology Corporation, priority 2015, dated 2023):
“Also recorded” adds a separate entry of the source.

What was measured:
BMDC / OT-1 CD8+ T cells = assay: OT1 T cell proliferation (3H-thymidine uptake), cross-presentation of OVA by BMDC on MHC class I; type: cell-based, mouse; conditions: for uptake and cross-presentation of OVA by BMDC, OT1 proliferation, CPM of 3H-thymidine uptake: whole OVA and various lipid concentrations, 30 min, three day culture
Procedure: In the second method, T cells from a TCR transgenic mice (OT-1) were used in which all T cells are specific for an internal peptide of OVA. These T cells will only proliferate if presented with DC which have processed OVA and presented an OVA peptide on MHC class I molecules.
Thus, this represents a stringent assay for cross presentation. BMDC were incubated with different concentrations of the whole OVA protein in the presence or absence of two cationic lipids, either DOTAP or DOTMA for 1 hr at 37° C. The DC were then washed, fixed and added to the OVA peptide specific T cells. […] This response was dose dependent with respect to the OVA concentration, and was even apparent when DC were incubated with OVA at 4° C.
To examine the effect of other cationic lipids and neutral lipids on antigen uptake and cross presentation, BMDC were incubated in the presence of the whole OVA protein and various concentrations of DOTAP DOTMA, DOPC, DOEPC or DDA for 30 min at 37° C. or 4° C. DC were then washed and added to OT1 splenocytes (TCR transgenic T cells specific for the class I restricted OVA peptide […] (SEQ ID NO: 2)) in microtiter plates and cultured for three days at 37° C. […] Control cultures contained OT1 splenocytes and […] (SEQ ID NO: 2) only which bypasses the need for antigen processing.

[1] = previous reported studies; cited from earlier work
[2] = test system: BMDC (CD11c positive cells); assay: DQ-OVA uptake and processing by BMDC, flow cytometry; type: cell-based, mouse; conditions: for enhancement of DQ-OVA uptake and processing compared with known adjuvants (red fluorescence): one hour, 25 μM DOTAP nanoparticles, 10 μg/ml LPS or media alone
Procedure: In order to determine the effects of cationic lipids on antigen uptake and processing by dendritic cells ex-vivo, a fluorescent ovalbumin protein called DQ-OVA was used. DQ-OVA is non-fluorescent when intact, but emits both red and green fluorescence when the protein is degraded. BMDC were incubated at 37° C. or 4° C. for 1 hr with DQ-OVA alone, or DQ-OVA mixed with different concentrations of the cationic lipid DOTAP. The cells were then washed, fixed, and stained with fluorescent antibodies to CD11c, a marker for dendritic cells. Cells were then analyzed on an LSRII flow cytometer in both red and green fluorescent channels.
This represents the well-known mannose receptor mediated uptake of OVA by DC. […] Graphical representation of the fluorescent uptake of DQ-OVA into BMDC measured by flow cytometry.
This uptake and processing was inhibited at 4° C. confirming that active cytoskeletal rearrangements are required for this type of uptake. […] The effect of R-DOTAP was concentration dependent with 50 uM showing the greatest effect. To determine if the R-DOTAP enhancement of protein uptake is cell dependent, a mouse epithelial cell line was incubated with DQ-OVA under identical conditions as the BMDC. […] Further, they indicate that this enhancement is selective for dendritic cells and not other, non-antigen presenting cell types.
In order to determine whether lipid adjuvants could mediate the same effect as R-DOTAP, BMDC were incubated with DQ-OVA in media alone or with R-DOTAP as described for FIG. 1. In addition, BMDC were incubated under identical conditions with the potent lipid adjuvant lipopolysaccharide (LPS). Mouse bone marrow DC were incubated in the presence of fluorescent DQ-OVA for one hour at either 37° C. or 4° C./azide in the presence of 25 μM DOTAP nanoparticles, 10 μg/ml LPS or media alone, and analyzed by flow cytometry. […] Monophorphoryl lipid-A (MPL) is a lower toxicity derivative of LPS that is now an FDA approved adjuvant in several vaccines.

[3] = test system: HPV16-specific CD8+ T-cells; assay: IFN-gamma ELISPOT of splenocytes after vaccination with KF18 HPV peptide formulations; type: in vivo, C57 black mice; conditions: vaccinated Day 0 and Day 7, sacrificed Day 14
Procedure: C57 black mice were vaccinated with various formulations: […]
Group 1: KF18 HPV peptide ([…]) (SEQ ID NO: 4)
Group 2: KF18 HPV peptide+R-DOTAP liposomes
Group 3: KF18 HPV peptide+S-DOTAP liposomes
Group 4: KF18 peptide+MPL/Alum adjuvant
5 mice per group were injected with the various formulations. The mice were vaccinated on Day 0 and Day 7 and sacrificed on Day 14. The splenocytes were removed and ELISPOT studies performed. The splenocytes were stimulated with the peptide […] (RF9) (SEQ ID NO: 5), the HPV16 CD8+ T-cell epitope peptide recognized by the C57 mice. […] An additional example of this effect is observed with the cationic lipid DDA. […] However, it has been reported that in order to induce strong antigen-specific T-cell responses that DDA is used in combination with strong adjuvants (Brandt L. et al, ESAT-6 Subunit Vaccination against Mycobacterium tuberculosis, Infect Immun. 2000 February; 68(2): 791-795).

TC-1 tumors = assay: Established TC-1 tumor model: tumor microenvironment, tumor volume, ELISPOT; type: in vivo, C57 mice
Procedure: C57 mice were divided into the following groups of 8 mice per group: R-DOTAP+HPV16 E7 peptide KF18 ([…]) (SEQ ID NO: 4) , GM-CSF+HPV16 E7 peptide KF18, R-DOTAP, GM-C SF, HPV16 E7 peptide KF18, untreated. 1×10^5 TC-1 tumor cells were injected into the flank of the mice on day 0. The various formulations were administered on Days 12 and 19 after tumor implantation. On day 19 4-5 mice per group were sacrificed and a number of evaluations performed to evaluate the immunology of the tumor microenvironment.
RF9 specific dextramer staining and flow cytometry were utilized to quantify the number of HPV-specific CD8+ T-cells that had infiltrated into the tumor micro-environment. The study quantified the number of CD8+ T cells specific to the mouse epitope RF9. These CD8+ T cells were measured as a percentage of all immune cells (CD45, CD3 and CD8) present in the tumor. Antigen specific T cells infiltrating into the tumor were measured using RF9 specific dextramers by flow cytometry. […] Data represents mean±SEM of 4-5 mice in each group.
On Day 19 flow cytometry was used to study the immuno-suppressive tumor microenvironment, specifically the regulatory T cell population. T regulatory cells (CD45+CD3+CD4+CD25+Foxp3+) cells infiltrated into tumors on day 14 and day 19.
Of critical importance to the clinical efficacy of any immunotherapy is the ratio of immune suppressive cells to tumor targeting CD8+ T cells within the tumor microenvironment. A lower ratio of immune suppressor cells to CD8+ T cells promotes improved prognosis for anti-tumor benefit. […] Cationic lipids appear to promote the preferential expansion of the right phenotype of effector T-cells in preference to Tregs.
The various formulations were evaluated for their impact on the established TC-1 tumors in the same study. […] Tumor volumes were measured using calipers. The naïve mice group are tumor bearing mice that remained untreated. The HPV16 E7 peptide used in the vaccine is KF18. […]
In this study, IFN-γ ELISPOT studies were also performed to quantify and understand the “quality” of tumor-specific T-cell generated. […]

[4] = test system: serum cytokines and chemokines; assay: Systemic cytokines in serum after vaccination, Luminex Mouse cytokine 20-plex panel; type: in vivo, Human HLA-A2 mice
Procedure: This study therefore focused on an evaluation of the systemic presence of cytokines after subcutaneous administration of cationic lipid vaccines. Human HLA-A2 mice that could recognize human HPV antigens were administered high and low doses of R-DOTAP+antigen.
Group 1: • Vaccinate mice with 100 μL of a 1:1 mixture of high dose R-DOTAP (3.4 mg/mL) and sucrose solution.
Group 2: • Vaccinate with 50 μg LPS as a positive control for cytokine induction
Group 3: • Vaccinate mice with 100 μL of high dose R-DOTAP+HPV antigens (1:1 Mixture of RDOTAP 3.4 mg/mL, and HPVMix 0.14 mg/mL)
Group 4: • Vaccinate mice with 100 μL of low dose R-DOTAP+HPV antigens (1:1 Mixture of RDOTAP 0.34 mg/mL, and HPVMix 0.14 mg/mL)
After a single vaccination all mice were bled as follows:
Approximately 200 μL of blood was withdrawn from each mouse at the above specified time points.
The cytokine analysis was performed by Luminex Assay following the manufacturer's instructions.
As a positive control, the mice were also vaccinated with the well-studied toll-like-receptor (TLR) agonist lipopolysaccharide (LPS).
Study Results:Mouse serum was analyzed using a Luminex Mouse cytokine 20-plex panel (cytokines listed below). Cytokine intensity levels were quantitated by comparing to a cytokine standard run in the same plate using Luminex software. […]

**Q.** Which results are given for `CCCCCCCCCCCCCCCCCC[N+](C)(C)CCCCCCCCCCCCCCCCCC` [DDA]?
**A.** observation on dilution with OVA (BMDC / OT-1 CD8+ T cells): formed a precipitate when diluted with OVA; uptake and cross-presentation of OVA by BMDC, OT1 proliferation, CPM of 3H-thymidine uptake (BMDC / OT-1 CD8+ T cells): facilitated enhanced uptake and cross-presentation of OVA by BMDC; also recorded: showed strong enhancement of antigen presentation; also recorded: facilitate antigen uptake and presentation; in vivo antigen-specific immune responses [1]: neither S-DOTAP nor DDA induced effective in vivo antigen-specific immune responses

**Q.** Which “uptake and cross-presentation of OVA by BMDC, OT1 proliferation, CPM of 3H-thymidine uptake” value (“uptake and cross-presentation of OVA” below) (BMDC / OT-1 CD8+ T cells) does the source give for `CCCCCCCC/C=C\CCCCCCCC(=O)OC[C@@H](COP(=O)(OCC)OCC[N+](C)(C)C)OC(=O)CCCCCCC/C=C\CCCCCCCC` (stereo partly drawn) [DOEPC, 1,2-dioleoyl-sn-glycero-3-ethylphosphocholine] here?
**A.** Its value is “facilitated enhanced uptake and cross-presentation of OVA by BMDC; also recorded: showed strong enhancement of antigen presentation”.

**Q.** Which “uptake and cross-presentation of OVA” value (BMDC / OT-1 CD8+ T cells) does the source give for `CCCCCCCC/C=C\CCCCCCCC(=O)OC[C@H](COP(=O)([O-])OCC[N+](C)(C)C)OC(=O)CCCCCCC/C=C\CCCCCCCC` [DOPC, reference compound] here?
**A.** Its value is “also facilitated uptake and presentation; also recorded: showed some enhancement”.

**Q.** What does the source list for `CCCCCCCC/C=C\CCCCCCCC(=O)OCC(C[N+](C)(C)C)OC(=O)CCCCCCC/C=C\CCCCCCCC` (stereo not drawn) [DOTAP, 1,2-dioleoyl-3-trimethylammonium propane]?
**A.** DQ-OVA uptake and processing, mean green fluorescence of CD11c positive cells ([2]; 37° C., 1 hr, versus DQ-OVA alone): enhances antigen uptake and processing by DC; cross presentation of OVA to CD8+ T cells, CPM of 3H-thymidine uptake (BMDC / OT-1 CD8+ T cells; BMDC with whole OVA, 1 hr at 37° C., washed, fixed): cross presented antigen to the CD8+ T cells much more strongly than DC incubated with OVA without cationic lipid; uptake and cross-presentation of OVA by BMDC, OT1 proliferation, CPM of 3H-thymidine uptake (BMDC / OT-1 CD8+ T cells): facilitated enhanced uptake and cross-presentation of OVA by BMDC; also recorded: showed some enhancement

**Q.** With `CCCCCCCC/C=C\CCCCCCCC(=O)OCC(C[N+](C)(C)C)OC(=O)CCCCCCC/C=C\CCCCCCCC` (stereo not drawn) [S-DOTAP, 1,2-dioleoyl-3-trimethylammonium propane] as the molecule, how does the “HPV-specific CD8+ T-cell response (ELISPOT, RF9 stimulation)” value [3] read?
**A.** Its value is “did not result in an enhanced CD8+ T-cell response beyond what was seen with the peptide alone”.

**Q.** And the “uptake and cross-presentation of OVA” value (BMDC / OT-1 CD8+ T cells)?
**A.** The value was “also facilitated uptake and presentation; also recorded: identical ability to promote antigen uptake, internalization and processing, as well as maturation of dendritic cells”.

**Q.** What about the “in vivo antigen-specific immune responses” value [1] of the same molecule?
**A.** The value was “neither S-DOTAP nor DDA induced effective in vivo antigen-specific immune responses”.

**Q.** Which tumor volume (TC-1 tumors; Day 26, calipers) does the source give for GQAEPDRAHYNIVTF [antigen only] here?
**A.** Its tumor volume is “about 200 mm^3”.

**Q.** What about the “effect on established TC-1 tumors” value (TC-1 tumors; formulations on Days 12 and 19, read Day 26) of the same molecule?
**A.** The value was “did not induce any tumor regression but inhibited tumor growth”.

**Q.** Which results are given for “Monophorphoryl lipid-A [MPL, reference compound]”?
**A.** enhancement of DQ-OVA uptake and processing compared with known adjuvants (red fluorescence) [2]: showed no ability to facilitate protein uptake in BMDC; also recorded: ineffective in promoting antigen uptake compared to both R-DOTAP and S-DOTAP; HPV-specific CD8+ T-cell response (ELISPOT, RF9 stimulation) [3]: significantly lower CD8+ T-cell response compared to R-DOTAP

**Q.** What does the source list for lipopolysaccharide [LPS]?
**A.** enhancement of DQ-OVA uptake and processing compared with known adjuvants (red fluorescence) [2]: no such enhancement was observed; time to systemic spike in cytokine levels ([4]; after vaccination): ≤ 12 h; systemic induction of cytokines and chemokines in serum ([4]; single vaccination, pre bleed, 12, 24, 48 hours): increases in the systemic levels of IL-12, IP-10, KC, MCP-1 & MIG
